The assay addresses T1, ERRα ligand binding domain (ERRα-LBD) (Homo sapiens, UniProt P11474).
T1 construct: made in house; host or cells: E. coli
T1 sequence (P11474 193-421 limits assumed): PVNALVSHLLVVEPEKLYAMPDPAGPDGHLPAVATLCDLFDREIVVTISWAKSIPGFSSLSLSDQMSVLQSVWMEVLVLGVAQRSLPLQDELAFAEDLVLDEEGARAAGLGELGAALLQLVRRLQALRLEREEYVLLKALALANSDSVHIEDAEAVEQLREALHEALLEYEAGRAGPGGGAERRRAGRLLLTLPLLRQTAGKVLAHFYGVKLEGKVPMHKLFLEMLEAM
As to the kind of experiment: ERRα AlphaScreen Assay. Format: biochemical. Particulars: disruption of binding of ERRα-LBD protein to biotin-PGC1α-3 co-activator peptide; read-out: mean pIC50 (converted). The source says: This assay was based on the knowledge that nuclear receptors interact with cofactors in a ligand dependent matter. The sites of interaction have been mapped to LXXLL motifs that are present in the co-activator sequences. Short peptide sequences that contain the LXXLL motif mimic the behavior of full length co-activators.
The ERRα AlphaScreen Assay described here relies on the interaction of the co-activator peptide with purified bacterial- expressed ERRα ligand binding domain (ERRα-LBD); upon ligand binding, the ERRα protein can undergo a conformational change resulting in a loss of co-activator binding.
Compounds of the present invention were tested for their ability to disrupt binding of ERRα-LBD protein to co-activator peptide using AlphaScreen® Technology (Perkin Elmer). ERRα-LBD protein was expressed in E. coli as a 6×His Small Ubiquitin-like Modifier (SUMO) fusion. Bacterial expressed 6His-SUMO-ERRα-LBD protein was purified using affinity chromatography. All experiments were performed at room temperature in 384-well white non-binding plates (Greiner) using 50 mM Tris-HCl pH 7.5, 100 mM NaCl, 0.1% Pluronic F-127, 0.05% BSA and 5 mM TCEP as the buffer. Final DMSO concentration was 1% in the assay. Compounds were assayed in triplicate and: incubated with 0.81 nM ERRα-LBD protein and 10 μg/mL streptavidin donor beads and 10 μg/mL Ni-chelate acceptor beads for 1 hour at room temperature; followed by a 2-hour incubation with 15 nM biotin-PGC1α-3 peptide (QRRPCSELLKYLTTNDDPP) corresponding to amino acids 202 to 220.
The AlphaScreen signal was measured using an Envision Xcite plate reader (Perkin Elmer). Data was normalized, and curve fitting analysis was performed in GraphPad Prism 7 using a four-parameter dose-response fit.

Turning to `COc1cc(C2CC(=O)Nc3n[nH]cc32)ccc1Oc1cc(C)cc(C)c1` (single isomer, unassigned; (-)) [Example 82, (−)-4-[4-(3,5-dimethylphenoxy)-3-methoxyphenyl]-2H,4H,5H,6H,7H-pyrazolo[3,4-b]pyridin-6-one], the IC50 was 10 to 100 nM.
The figure for `COc1cc(-c2cc(=O)[nH]c3n[nH]cc23)ccc1Oc1ccc(C#N)cc1C(F)(F)F` [Example 71, 4-(2-methoxy-4-{6-oxo-2H,6H,7H-pyrazolo[3,4-b]pyridin-4-yl}phenoxy)-3-(trifluoromethyl)benzonitrile] is 100 to 1000 nM; for `CCCc1ccccc1Oc1ccc(C2CC(=O)Nc3n[nH]cc32)cc1OC` (stereo not shown) [Example 22, 4-[3-methoxy-4-(2-propylphenoxy)phenyl]-2H,4H,5H,6H,7H-pyrazolo[3,4-b]pyridin-6-one] it is 100 to 1000 nM.
As for `COc1cc(C2CC(=O)Nc3n[nH]cc32)ccc1Oc1ccccc1C(F)(F)F` (stereo not shown) [Example 4, 4-{3-methoxy-4-[2-(trifluoromethyl)phenoxy]phenyl}-2H,4H,5H,6H,7H-pyrazolo[3,4-b]pyridin-6-one], the IC50 was 100 to 1000 nM.
Turning to `COc1cc(C2CC(=O)Nc3n[nH]cc32)ccc1Oc1cccc(C(F)(F)F)c1` (stereo not shown) [Example 6, 4-{3-methoxy-4-[3-(trifluoromethyl)phenoxy]phenyl}-2H,4H,5H,6H,7H-pyrazolo[3,4-b]pyridin-6-one], the IC50 was 100 to 1000 nM.
`COc1cc(Oc2ccc(C3CC(=O)Nc4n[nH]cc43)cc2Br)cc(C(F)(F)F)c1` (stereo not shown) [Example 52, 4-{3-bromo-4-[3-methoxy-5-(trifluoromethyl)phenoxy]phenyl}-2H,4H,5H,6H,7H-pyrazolo[3,4-b]pyridin-6-one]: the IC50 was 10 to 100 nM.
For `COc1cc(C2CC(=O)Nc3n[nH]cc32)ccc1Oc1ccccc1-c1ccccc1` (stereo not shown) [Example 24, 4-[3-methoxy-4-(2-phenylphenoxy)phenyl]-2H,4H,5H,6H,7H-pyrazolo[3,4-b]pyridin-6-one], the IC50 was 100 to 1000 nM.
`Cc1cc(C2CC(=O)Nc3n[nH]cc32)ccc1Oc1ccc(C#N)cc1C(C)(C)C` (stereo not shown) [Example 55, 3-tert-butyl-4-(2-methyl-4-{6-oxo-2H,4H,5H,6H,7H-pyrazolo[3,4-b]pyridin-4-yl}phenoxy)benzonitrile]: the IC50 was 10 to 100 nM.
As for `CCc1cccc(Oc2ccc(C3CC(=O)Nc4n[nH]cc43)cc2OC)c1` (stereo not shown) [Example 21, 4-[4-(3-ethylphenoxy)-3-methoxyphenyl]-2H,4H,5H,6H,7H-pyrazolo[3,4-b]pyridin-6-one], the IC50 is 100 to 1000 nM.
Regarding `COc1cc(C2CC(=O)Nc3n[nH]cc32)ccc1Oc1cc(C)cc(C)c1` (stereo not shown) [Example 64, 4-[4-(3,5-dimethylphenoxy)-3-methoxyphenyl]-2H,4H,5H,6H,7H-pyrazolo[3,4-b]pyridin-6-one], the IC50 was 10 to 100 nM.
With `COc1cc(C2CC(=O)Nc3n[nH]cc32)ccc1Oc1ccccc1C12CC(C1)C2` (stereo not shown) [Example 45, 4-[4-(2-{bicyclo[1.1.1]pentan-1-yl}phenoxy)-3-methoxyphenyl]-2H,4H,5H,6H,7H-pyrazolo[3,4-b]pyridin-6-one] the figure was 10 to 100 nM.
On to `COc1cc(C2CC(=O)Nc3n[nH]cc32)ccc1Oc1cc(C)cc(C)c1` (single isomer, unassigned; (+)) [Example 81, (+)-4-[4-(3,5-dimethylphenoxy)-3-methoxyphenyl]-2H,4H,5H,6H,7H-pyrazolo[3,4-b]pyridin-6-one], for which the IC50 was 100 to 1000 nM.
The figure for `COc1ccc(Oc2ccc(C3CC(=O)Nc4n[nH]cc43)cc2OC)c(C(C)(C)C)c1` (stereo not shown) [Example 27, 4-[4-(2-tert-butyl-4-methoxyphenoxy)-3-methoxyphenyl]-2H,4H,5H,6H,7H-pyrazolo[3,4-b]pyridin-6-one] is at most 10 nM.
As to `COc1cc(C2CC(=O)Nc3n[nH]cc32)ccc1Oc1cc(C(F)(F)F)cc(C(F)(F)F)c1` (single isomer, unassigned; (+)) [Example 79, (+)-4-{4-[3,5-bis(trifluoromethyl)phenoxy]-3-methoxyphenyl}-2H,4H,5H,6H,7H-pyrazolo[3,4-b]pyridin-6-one], the IC50 is 100 to 1000 nM.
In the case of `COc1cc(C2CC(=O)Nc3n[nH]cc32)ccc1Oc1cccc(C(C)C)c1` (stereo not shown) [Example 30, 4-{3-methoxy-4-[3-(propan-2-yl)phenoxy]phenyl}-2H,4H,5H,6H,7H-pyrazolo[3,4-b]pyridin-6-one], the IC50 is 10 to 100 nM.
The figure for `COc1cc(C2CC(=O)Nc3n[nH]cc32)ccc1Oc1cc(C(C)(C)C)cc(C(C)(C)C)c1` (stereo not shown) [Example 44, 4-[4-(3,5-di-tert-butylphenoxy)-3-methoxyphenyl]-2H,4H,5H,6H,7H-pyrazolo[3,4-b]pyridin-6-one] is 10 to 100 nM.
On to `COc1cc(C2CC(=O)Nc3n[nH]cc32)ccc1Oc1cccc2c1OC(C)(C)C2` (stereo not shown) [Example 48, 4-{4-[(2,2-dimethyl-2,3-dihydro-1-benzofuran-7-yl)oxy]-3-methoxyphenyl}-2H,4H,5H,6H,7H-pyrazolo[3,4-b]pyridin-6-one], for which the IC50 was 10 to 100 nM.
For the molecule `COc1cc(C2CC(=O)Nc3n[nH]cc32)ccc1Oc1ccccc1Cc1ccccc1` (stereo not shown) [Example 26, 4-[4-(2-benzylphenoxy)-3-methoxyphenyl]-2H,4H,5H,6H,7H-pyrazolo[3,4-b]pyridin-6-one], the IC50 was 100 to 1000 nM.
As for `COc1cc(C2CC(=O)Nc3n[nH]cc32)ccc1Oc1ccccc1C1CCCC1` (stereo not shown) [Example 25, 4-[4-(2-cyclopentylphenoxy)-3-methoxyphenyl]-2H,4H,5H,6H,7H-pyrazolo[3,4-b]pyridin-6-one], the IC50 is 100 to 1000 nM.
In the case of `COc1cc(C2CC(=O)Nc3n[nH]cc32)ccc1Oc1ccccc1Br` (stereo not shown) [Example 7, 4-[4-(2-bromophenoxy)-3-methoxyphenyl]-2H,4H,5H,6H,7H-pyrazolo[3,4-b]pyridin-6-one], the IC50 is 100 to 1000 nM.
Take `COc1cc(C2CC(=O)Nc3n[nH]cc32)ccc1Oc1cc(C)cc(C(F)(F)F)c1` (single isomer, unassigned; (+)) [Example 83, (+)-4-{3-methoxy-4-[3-methyl-5-(trifluoromethyl)phenoxy]phenyl}-2H,4H,5H,6H,7H-pyrazolo[3,4-b]pyridin-6-one]: the IC50 is 100 to 1000 nM.
`COc1cc(Oc2ccc(C3CC(=O)Nc4n[nH]cc43)cc2C)cc(C(F)(F)F)c1` (stereo not shown) [Example 56, 4-{4-[3-methoxy-5-(trifluoromethyl)phenoxy]-3-methylphenyl}-2H,4H,5H,6H,7H-pyrazolo[3,4-b]pyridin-6-one]: the IC50 is 10 to 100 nM.
With `COc1cc(C2CC(=O)Nc3n[nH]cc32)ccc1Oc1ccc(C(F)(F)F)cc1` (stereo not shown) [Example 5, 4-{3-methoxy-4-[4-(trifluoromethyl)phenoxy]phenyl}-2H,4H,5H,6H,7H-pyrazolo[3,4-b]pyridin-6-one] the figure was 100 to 1000 nM.
Take `COc1cc(C2CC(=O)Nc3n[nH]cc32)ccc1Oc1ccccc1C(C)C` (stereo not shown) [Example 23, 4-{3-methoxy-4-[2-(propan-2-yl)phenoxy]phenyl}-2H,4H,5H,6H,7H-pyrazolo[3,4-b]pyridin-6-one]: the IC50 is 10 to 100 nM.
In the case of `COC(=O)c1ccc(Oc2ccc(C3CC(=O)Nc4n[nH]cc43)cc2OC)c2ccccc12` (stereo not shown) [Example 36, methyl 4-(2-methoxy-4-{6-oxo-2H,4H,5H,6H,7H-pyrazolo[3,4-b]pyridin-4-yl}phenoxy)naphthalene-1-carboxylate], the IC50 was at most 10 nM.

(Values after patent US20240150342A1, “ESTROGEN-RELATED RECEPTOR ALPHA MODULATORS” (LEAD PHARMA HOLDING B.V., priority 2019, published 2024).)
